# Assay results from US20130344174A1, “Bioactive Fractions and Compounds from Polygonum genus, their Use in Anti-diarrhea and the Method of Preparation” (HONG KONG BAPTIST UNIVERSITY, priority 2012, published 2013).
# Assays:
# Assay type in all cases: in vivo, ICR mice
# [1] = system: magnesium sulphate-induced diarrhea in mice; test: Magnesium sulphate-induced diarrhea in mice; conditions: magnesium sulfate model, FIG. 6; for inhibitory effect on diarrhea (stools rate, stools grade, diarrhea index): oral, corilagin 30 and 60 mg/kg, ellagic acid 15 and 30 mg/kg
# Protocol: ICR mice weighing 18-22 g were purchased from the Laboratory Animal Services Center, The Chinese University of Hong Kong. The animals were fed with a rodent standard diet with free access to water, and were kept in rooms maintained at 22±1° C. with a 12 h light/dark cycle following international recommendations. All experimental protocols were approved by The Animal Ethics Committees of Hong Kong Baptist University, in accordance with “Institutional Guidelines and Animal Ordinance” (Department of Health, Hong Kong Special Administrative Region). A protocol for castor oil-induced diarrhea was followed. In brief, diarrhea was induced by orally administration of magnesium sulphate at the dose of 3 g/kg to the animals 30 min after pretreatment with extracts, fractions or major components of P. chinense, and loperamide. All the administrations are carried out through oral route. Stool rate (SR), stool grade (SG) and diarrheal index (DI) were all evaluated.
# [2] = system: castor oil-induced diarrhea in mice; test: Castor oil-induced diarrhea in mice; conditions: castor oil model, FIG. 6; for inhibitory effect on diarrhea (stools rate, stools grade, diarrhea index): oral, corilagin 30 and 60 mg/kg, ellagic acid 15 and 30 mg/kg
# Protocol: ICR mice weighing 18-22 g were purchased from the Laboratory Animal Services Center, The Chinese University of Hong Kong. The animals were fed with a rodent standard diet with free access to water, and were kept in rooms maintained at 22±1° C. with a 12 h light/dark cycle following international recommendations. All experimental protocols were approved by The Animal Ethics Committees of Hong Kong Baptist University, in accordance with “Institutional Guidelines and Animal Ordinance” (Department of Health, Hong Kong Special Administrative Region). The castor oil-induced diarrhea model, as previously described by Zhou, et al in Zhou [NT]; Hu Zhihua; Wang […]; et al (Institute of Chinese Materia Medica, China Pharmaceutical University, Nanjing); An Inquiry into Preparing Diarrhea Model of Mice and Application of Diarrhea Index[J]; Chinese Traditional and Herbal Drugs; 1994-04, was used in the present study. In brief, extracts, fractions or major components of P. chinense, and loperamide were administered orally for 5 consecutive days. On day 5, each animal was kept individually in a cage, the floor of which was lined with blotting paper, and the paper was changed every hour. 30 min after the last treatment, diarrhea was induced by oral administration of castor oil ([…]). Number of total fecal pellets and wet faeces were counted in 4 h after the administration of castor oil. The diameter of wet faeces was measured and scored in order to evaluate stool consistency as follows: 1-the diameter of wet […] than 1.0 cm; 2-the diameter of wet […] between 1.0 and 2.0 cm; 3-the diameter of wet […] between 2.0 and 3.0 cm; 4- the diameter of wet […] more than 3.0 cm. The stool rate (SR) was calculated through comparing of the number of wet faeces and total faeces, and stool grade (SG) was evaluated according to the formula: [formula] where Nwet is the number of wet faeces; N<1, N1-2, N2-3 and N>3 are the number of wet faeces whose diameter are less than 1.0 cm, between 1.0 and 2.0 cm, between 2.0 and 3.0 cm, and more than 3.0 cm, respectively. Finally, the stool severity was evaluated by the in vivo diarrheal index (DI) and expressed as follows according to the method of Zhou, et al. DI=SR×SG
# [3] = system: intestinal fluid secretion evoked by MgSO4 in mice; test: Antienteropooling assay (MgSO4-evoked intestinal fluid accumulation); conditions: 5 days, compared to control group, FIG. 7
# Protocol: ICR mice weighing 18-22 g were purchased from the Laboratory Animal Services Center, The Chinese University of Hong Kong. The animals were fed with a rodent standard diet with free access to water, and were kept in rooms maintained at 22±1° C. with a 12 h light/dark cycle following international recommendations. All experimental protocols were approved by The Animal Ethics Committees of Hong Kong Baptist University, in accordance with “Institutional Guidelines and Animal Ordinance” (Department of Health, Hong Kong Special Administrative Region). The experiment was conducted as previously described with a litter revision. Animals will be randomly divided into six groups. Vehicle control group received 0.5% CMC suspension (10 ml/kg, p.o.), the positive control group was administered loperamide at the dose of 2 mg/kg orally; the test groups were orally administered major principles ellagic acid at the doses of 15 and 30 mg/kg, and corilagin at the doses of 30 and 60 mg/kg, respectively. The whole treatment lasted for 5 consecutive days. Before the last treatment, the mice of all groups were fasted overnight. After one hour of the last treatment on day 5, all groups were given the diarrhea reagent (0.5 ml/mouse of a 20% aq. MgSO4, orally). They were killed 30 min later and the small intestines were collected and weighed to find out the accumulation of intestinal fluid secretion evoked by MgSO4.
# [4] = system: intestinal transit of charcoal meal in mice; test: Gastrointestinal transit test (charcoal meal); conditions: 5 days, FIG. 7
# Protocol: ICR mice weighing 18-22 g were purchased from the Laboratory Animal Services Center, The Chinese University of Hong Kong. The animals were fed with a rodent standard diet with free access to water, and were kept in rooms maintained at 22±1° C. with a 12 h light/dark cycle following international recommendations. All experimental protocols were approved by The Animal Ethics Committees of Hong Kong Baptist University, in accordance with “Institutional Guidelines and Animal Ordinance” (Department of Health, Hong Kong Special Administrative Region). The experiment was conducted based on methods known in the art with a litter revision. Animals will be randomly divided into six groups. Vehicle control group received 0.5% CMC suspension (10 ml/kg, p.o.), the positive control group was administered loperamide at the dose of 2 mg/kg orally; the test groups were orally administered major principles ellagic acid at the doses of 15 and 30 mg/kg, and corilagin at the doses of 30 and 60 mg/kg, respectively. The whole treatment lasted for 5 consecutive days. Before the last treatment, the mice of all groups were fasted overnight. Five minutes later of the last treatment on day 5, 0.5 ml of a 3% suspension of deactivated charcoal in 0.5% aqueous Sodium Carboxymethyl Cellulose was administered orally to each mouse. All the mice were killed by cervical […] 30 min later and the distance travelled by the charcoal plug from pylorus to caecum was determined and expressed as a percentage of the total length of the small intestine.
# [5] = 60 mg/kg oral vs loperamide 2 mg/kg
# [6] = 30 mg/kg oral vs loperamide 2 mg/kg
Compound,"anti-diarrheal activity compared to loperamide [1, 5]","inhibitory effect on diarrhea (stools rate, stools grade, diarrhea index) [1]","anti-diarrheal activity compared to loperamide [2, 5]","inhibitory effect on diarrhea (stools rate, stools grade, diarrhea index) [2]",intestinal fluid volume (pylorus to caecum) ([3]; 30 mg/kg oral),intestinal fluid volume (pylorus to caecum) ([3]; 60 mg/kg oral),intestinal transit of charcoal meal ([4]; 15 mg/kg oral),intestinal transit of charcoal meal ([4]; 30 mg/kg oral),"anti-diarrheal activity compared to loperamide [1, 6]","anti-diarrheal activity compared to loperamide [2, 6]",intestinal fluid volume (pylorus to caecum) ([3]; 15 mg/kg oral)
O=C(O[C@@H]1O[C@@H]2COC(=O)c3cc(O)c(O)c(O)c3-c3c(cc(O)c(O)c3O)C(=O)O[C@H]([C@H]1O)[C@@H]2O)c1cc(O)c(O)c(O)c1 [corilagin],comparable anti-diarrheal activities as loperamide,significantly inhibitory effects,comparable anti-diarrheal activities as loperamide,significantly inhibitory effects,significantly reduced,significantly reduced,significantly delay,significantly delay,–,–,–
O=c1oc2c(O)c(O)cc3c(=O)oc4c(O)c(O)cc1c4c23 [ellagic acid],–,significantly inhibitory effects,–,significantly inhibitory effects,significantly reduced,–,–,significantly delay,comparable anti-diarrheal activities as loperamide,comparable anti-diarrheal activities as loperamide,significantly reduced
